In patent US10906873B2, “Substituted cyclic amides as herbicides” (FMC Corporation, priority 2015, dated 2021):

Experiments:
Assay type in all cases: in vivo
[1] = system: crabgrass (large crabgrass, Digitaria sanguinalis); test: Test A preemergence, crabgrass; details: 1000 g ai/ha, 0 to 100 scale
Source text: (§1) Seeds of plant species selected from barnyardgrass (Echinochloa crus-galli), crabgrass (large crabgrass, Digitaria sanguinalis), kochia (Kochia scoparia), ragweed (common ragweed, Ambrosia elatior), morningglory (Ipomoea spp.), velvetleaf (Abutilon theophrasti), ryegrass, It. (Italian ryegrass, Lolium multiflorum), foxtail, giant (giant foxtail, Setaria faberii), wheat (Triticum aestivum), corn (Zea mays), and pigweed (Amaranthus retroflexus), were planted into a blend of loam soil and sand and treated preemergence with a directed soil spray using test chemicals formulated in a non-phytotoxic solvent mixture which included a surfactant. At the same time, plants selected from these crop and weed species and also blackgrass (Alopecurus myosuroides), and galium (catchweed bedstraw, Galium aparine), were planted in pots containing the same blend of loam soil and sand and treated with postemergence applications of test chemicals formulated in the same manner. Plants ranged in height from 2 to 10 cm and were in the one- to two-leaf stage for the postemergence treatment. Treated plants and untreated controls were maintained in a greenhouse for approximately 10 d, after which time all treated plants were compared to untreated controls and visually evaluated for injury. Plant response ratings, summarized in Table A, are based on a 0 to 100 scale where 0 is no effect and 100 is complete control. A dash (-) response means no test result.

[2] = system: pigweed (Amaranthus retroflexus); test: Test A preemergence, pigweed; details: 1000 g ai/ha, 0 to 100 scale
In short: (§2)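 Scores run from 0, no effect, to 100, complete control, assigned visually after roughly 10 d in the greenhouse. Preemergence treatment is a directed spray onto sown loam–sand soil; postemergence treatment targets plants 2 to 10 cm tall.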

[3] = system: wheat (Triticum aestivum); test: Test A postemergence, wheat; details: 1000 g ai/ha, 0 to 100 scale
In short: as §2

[4] = system: velvetleaf (Abutilon theophrasti); test: Test A postemergence, velvetleaf; details: 1000 g ai/ha, 0 to 100 scale
Source text: as §1

[5] = system: morningglory (Ipomoea spp.); test: Test A preemergence, morningglory; details: 1000 g ai/ha, 0 to 100 scale
Source text: as §1

[6] = system: wheat (Triticum aestivum); test: Test A preemergence, wheat; details: 1000 g ai/ha, 0 to 100 scale
Source text: as §1

[7] = system: velvetleaf (Abutilon theophrasti); test: Test A preemergence, velvetleaf; details: 1000 g ai/ha, 0 to 100 scale
Source text: as §1

[8] = system: crabgrass (large crabgrass, Digitaria sanguinalis); test: Test A postemergence, crabgrass; details: 1000 g ai/ha, 0 to 100 scale
Source text: as §1

corn (Zea mays) [9] = test: Test A postemergence, corn; details: 1000 g ai/ha, 0 to 100 scale
In short: as §2

corn (Zea mays) [10] = test: Test A preemergence, corn; details: 1000 g ai/ha, 0 to 100 scale
Source text: as §1

[11] = system: sedge, umbrella (small-flower umbrella sedge, Cyperus difformis); test: Test B flooded paddy test, sedge, umbrella; details: Flood, 250 g ai/ha; scale of 0 to 100 where 0 is no effect and 100 is complete control; 13 to 15 d
In short: (§3)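 Plants at the 2-leaf stage were flooded to 3 cm above soil, and test compounds were applied directly into the paddy water, which was held at that depth throughout. After 13 to 15 d in a greenhouse, injury was rated visually against untreated controls on a 0–100 scale (0 no effect, 100 complete control).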

[12] = system: barnyardgrass (Echinochloa crus-galli); test: Test A postemergence, barnyardgrass; details: 1000 g ai/ha, 0 to 100 scale (0 no effect, 100 complete control)
In short: as §2

[13] = system: barnyardgrass (Echinochloa crus-galli); test: Test A preemergence, barnyardgrass; details: 1000 g ai/ha, 0 to 100 scale
In short: as §2

[14] = system: barnyardgrass (Echinochloa crus-galli); test: Test B flooded paddy test, barnyardgrass; details: Flood, 250 g ai/ha; scale of 0 to 100 where 0 is no effect and 100 is complete control; 13 to 15 d
In short: as §3

[15] = system: pigweed (Amaranthus retroflexus); test: Test A postemergence, pigweed; details: 1000 g ai/ha, 0 to 100 scale
In short: as §2

[16] = system: foxtail, giant (giant foxtail, Setaria faberii); test: Test A preemergence, foxtail, giant; details: 1000 g ai/ha, 0 to 100 scale
In short: as §2

[17] = system: morningglory (Ipomoea spp.); test: Test A postemergence, morningglory; details: 1000 g ai/ha, 0 to 100 scale
Source text: as §1

rice (Oryza sativa) = test: Test B flooded paddy test, rice; details: Flood, 250 g ai/ha; scale of 0 to 100 where 0 is no effect and 100 is complete control; 13 to 15 d
In short: as §3

[18] = system: ducksalad (Heteranthera limosa); test: Test B flooded paddy test, ducksalad; details: Flood, 250 g ai/ha; scale of 0 to 100 where 0 is no effect and 100 is complete control; 13 to 15 d
In short: as §3

[19] = system: foxtail, giant (giant foxtail, Setaria faberii); test: Test A postemergence, foxtail, giant; details: 1000 g ai/ha, 0 to 100 scale
In short: as §2

SMILES | Plant response rating, Crabgrass [1] | Plant response rating, Pigweed [2] | Plant response rating, Wheat [3] | Plant response rating, Velvetleaf [4] | Plant response rating, Morningglory [5] | Plant response rating, Wheat [6] | Plant response rating, Velvetleaf [7] | Plant response rating, Crabgrass [8] | Plant response rating, Corn (corn (Zea mays) [9]) | Plant response rating, Corn (corn (Zea mays) [10]) | Plant response rating, Sedge, Umbrella [11] | Plant response rating, Barnyardgrass [12] | Plant response rating, Barnyardgrass [13] | Plant response rating, Barnyardgrass [14] | Plant response rating, Pigweed [15] | Plant response rating, Foxtail, Giant [16] | Plant response rating, Morningglory [17] | Plant response rating, Rice (rice (Oryza sativa)) | Plant response rating, Ducksalad [18] | Plant response rating, Foxtail, Giant [19]
O=C1NCC(Cc2ccc(F)cc2)C1C(=O)Nc1cccc(F)c1F (stereo not drawn) [Compound 13, N-(2,3-difluorophenyl)-4-[(4-fluorophenyl)methyl]-2-oxo-3-pyrrolidinecarboxamide] | 80 | 0 | 0 | 0 | 0 | 0 | 0 | 80 | 0 | 0 | 0 | 80 | 80 | 0 | 0 | 60 | 0 | 0 | 0 | 60
O=C1NCC(Cc2ccc(F)cc2)C1C(=O)Nc1ccccc1F (stereo not drawn) [Compound 14] | 80 | 0 | 0 | 0 | 0 | 0 | 0 | 20 | 0 | 0 | – | 0 | 20 | – | 0 | 30 | 0 | – | – | 0
